Data taken from patent US20230174526A1, “BENZOTHIAZOLYL BIARYL COMPOUND, AND PREPARATION METHOD AND USE” (SHANGHAI RINGENE BIOPHARMA CO., LTD., priority 2020, published 2023).
Read-outs that look alike come from different tables or passages of the source.

Columns and labels:
KRAS^G12C/SOS1 = biological target: T1, KRAS^G12C/SOS1 (Homo sapiens, UniProt P01116, G12C); assay: KRAS^G12C/SOS1 protein-protein interaction Binding assay (CisBio kit); conditions: class symbols
T1 construct: purchased CisBio
T1 sequence (P01116 1-188 isoform P01116-2 G12C): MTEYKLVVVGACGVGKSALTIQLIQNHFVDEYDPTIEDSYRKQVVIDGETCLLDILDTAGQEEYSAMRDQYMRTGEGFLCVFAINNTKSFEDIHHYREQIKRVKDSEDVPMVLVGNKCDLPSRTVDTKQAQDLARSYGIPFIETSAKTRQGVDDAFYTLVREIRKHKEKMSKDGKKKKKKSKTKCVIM
Procedure: CisBio’s KRAS^G12C/SOS1 kit was used to test the efficacy of the compound on inhibiting the protein-protein interaction between SOS1 and KRAS^G12Cby Binding assay.Results were expressed as IC50values.
Test methods: (1) the test compound was tested at a concentration of 1000 nM. Diluted to 3-fold diluted compound of a 200-fold final concentration of 100% DMSO solution in a 384-well plate at 10 concentrations. 50 nL of 200-fold final concentration of compound was transferred to the destination plate 384 well plate using a dispenser Echo 550.50 nL of 100% DMSO was added to the negative control wells and positive control wells; (2) 4-fold final concentration of Tag1 SOS1 solution was prepared using Diluent buffer; (3) 2.5 µL of 4-fold final concentration of Tag1 SOS1 solution was added to the 384-well plate; (4) 4-fold final concentration of Tag2 KRAS^G12C solution was prepared using Diluent buffer; (5) 2.5 µL of 4-fold final concentration of Tag2 KRAS^G12C solution was added to compound wells and positive control wells, respectively; 2.5 µL of diluent buffer was added to negative control wells; (6) the 384-well plate was centrifuged at 1000 rpm for 30 seconds, shaken and mixed, and incubated at room temperature for 15 min; (7) 1-fold final concentration of Anti Tag1 TB3+ solution and 1-fold final concentration of Anti Tag2 XL665 solution were prepared with Detection buffer, and 5 µL of the mixture was added to each well after mixing the two solutions; (8) the 384-well plate was centrifuged at 1000 rpm for 30 seconds, shaken and mixed, and incubated at room temperature for 120 minutes; (9) the Envision enzyme marker was used to read
Em665/620; (10) data analysis, calculation formula; where Min signal is the mean value of negative control wells, Max signal is the mean value of positive control wells.The log value of concentration was used as the X-axis and the percentage inhibition as the Y-axis to fit the quantitative efficacy curve using the log(inhibitor) vs. response Variable slope of the quantitative efficacy curve of the analytical software GraphPad Prism 5 to derive the IC50 value of each compound on the enzyme activity.The fitting formula was: Y=Bottom+(Top Bottom)/(1+10^A((LogIC50X)^∗ HillSlope)).

[1] = system: MiaPaca-2 cells (pancreatic cancer); assay: Proliferation test method 1 (2D, MTT), MiaPaca-2; type: cell-based; conditions: 5-7 days, read-out: IC50/nM proliferation inhibitory activity on MiaPaca-2 cells
Procedure: (§1) Test method 1 (2D):NCI-H358 (lung cancer) and MiaPaca-2 cells (pancreatic cancer) cells (100 µL/well, 20,000 cells/mL) were inoculated in 96-well culture plates supplemented with 10% fetal bovine serum and 1% penicillin/streptomycin sulfate, respectively.Using 0.5% dimethyl sulfoxide as a blank control, cells were treated with a solution of the compound to be tested at a starting concentration of 10 µM, tripled diluted testing solution of the compound in eight gradients were used to treat cells, and then incubated in a 5% CO2 incubator for a certain period of time (5-7 days).At the end of incubation, 10 µL of MTT stock solution (5 mg/mL) was added to each well.The culture plates were incubated at 37° C. for 4 h and then the medium was removed.Dimethyl sulfoxide (100 µL) was added to each well and then shaken sufficiently. The absorbance of the product formazanwas measured at 570 nm on the Thermo Scientific Varioskan Flash multimode reader.IC50 values were obtained by fitting dose-response data into a three-parameter nonlinear regression model using GraphPad Prism 6.0 software.

MiaPaca-2 cells = assay: Proliferation test method 2 (3D, Cell Titer Glo 3D), MiaPaca-2; type: cell-based; conditions: Homo sapiens, MIA PaCa-2, 96 h, read-out: IC50 cell proliferation inhibitory activity against MiaPaca-2
Procedure: (§2) Test method 2 (3D): The tumor cells in the logarithmic growth phase were diluted with culture solution to a certain concentration and inoculated on the 96-well plate on the ultra-low attachment surface, and the culture medium was 80 µL/well. Cells were incubated overnight at 37° C. in a humidity chamber. On the second day, a series of diluted test compounds (10 concentrations, 3 times dilution) were added to the plate, 20 µL/well, incubated in an incubator for 96h.The plates are removed and placed at room temperature and incubated with an equal volume of Cell Titer Glo®3D reagent for 1 h. The signal is detected by the En Vision™ plate reader. […] A four-parameter nonlinear regression curve was fitted to the percent inhibition for each concentration of the compound and the IC50 was calculated.

NCI-H358 cells = assay: Proliferation test method 2 (3D, Cell Titer Glo 3D), NCI-H358; type: cell-based; conditions: Homo sapiens, NCI-H358, 96 h, read-out: IC50 cell proliferation inhibitory activity against NCI-H358
Procedure: as §2

[2] = system: NCI-H358 (lung cancer) cells; assay: Proliferation test method 1 (2D, MTT), NCI-H358; type: cell-based; conditions: Homo sapiens, 5-7 days, read-out: IC50 proliferation inhibitory activity against NCI-H358
Procedure: as §1

[3] = system: phosphorylated ERK levels of MiaPaca-2; assay: ERK phosphorylation (western blot), MiaPaca-2; type: cell-based; conditions: Homo sapiens, MIA PaCa-2, 24 h
Procedure: (§3) Test method 3 (ERK phosphorylation): Miapaca-2 or H358 cells were inoculated at certain concentrations in 96-well plates and incubated overnight at 37° C., 5% CO2 in a cell culture incubator, and serial dilutions of the test compound (5 concentrations, 3-fold dilution) were added to the plates the next day for 24 h (Miapaca-2) or 3 h (H358), then lysis solution containing protease and phosphatase inhibitor were added to lyse the cells to extract proteins and western blot method was used to detect the level of p-ERK.

[4] = system: phosphorylated ERK levels of NCI-H358; assay: ERK phosphorylation (western blot), H358; type: cell-based; conditions: Homo sapiens, 3 h
Procedure: as §3

IC50 (KRAS^G12C/SOS1) [nM] | IC50 ([1]; Homo sapiens, MIA PaCa-2, 2D) [nM] | SMILES | also measured
> 1000 | – | C=CC(=O)N1CC2C(=O)N(C)c3cnc4c(F)c(-c5c(O)cccc5F)c(Cl)cc4c3N2CC1C (single isomer, unassigned) [Comparative Compound 2-2, reference compound] | –
– | – | C=CC(=O)N1C[C@@H]2C(=O)N(C)c3cnc4c(F)c(-c5ccc(F)c6sc(N)nc56)c(Cl)cc4c3N2C[C@H]1C (single isomer, unassigned) [Example 17-2] | IC50 ([1]; 2D): 23.1 nM
< 50 | 13.2 | C=CC(=O)N1CCN(c2nc(NC[C@@H]3CCCN3C)nc3c(F)c(-c4ccc(F)c5sc(N)nc45)c(Cl)cc23)CC1 [Example 2, 1-(4-(7-(2-Amino-7-Fluorobenzo[d]Thiazol-4-yl)-6-Chloro-8-Fluoro-2-((((S)-1-Methylpyrrolidin-2-yl)Methyl)Amino)Quinazolin-4-yl)Piperazin-1-yl)Prop-2-En-1-One] | IC50 (MiaPaca-2 cells): < 200 nM; IC50 (NCI-H358 cells): < 200 nM
< 50 | 1.1 | C=CC(=O)N1CCN(c2c(C#N)c(NC[C@@H]3CCCN3C)nc3c(F)c(-c4ccc(F)c5sc(N)nc45)c(Cl)cc23)CC1 [Example 4, 4-(4-Piperazinylacryloylpiperazin-1-yl)-7-(2-Amino-7-Fluorobenzo[d]Thiazol-4-Yl)-6-Chloro-8-Fluoro-2-((((S)-1-Methylpyrrolin-2-yl)Methyl)Amino)Quinoline-3-Cyano] | –
< 50 | – | C=CC(=O)N1CCN(c2nc(OCCN(C)C)nc3c(F)c(-c4ccc(F)c5sc(N)nc45)c(Cl)cc23)CC1 [Example 5] | IC50 [2]: < 100 nM; IC50 (MiaPaca-2 cells): < 200 nM; IC50 [3]: < 500 nM; IC50 (NCI-H358 cells): < 200 nM; IC50 [4]: < 500 nM
50 to 200 | 35 | C=CC(=O)N1CCN(c2nc(Cl)nc3c(F)c(-c4ccc(F)c5sc(N)nc45)c(Cl)cc23)CC1 [Example 6, 1-(4-(7-(2-Amino-7-Fluorobenzo [d] Thiazol-4-yl)-2,6-Dichloro-8-Fluoroquinazolin-4-yl) Piperazin-1-yl) Prop-2-Ene-1-One] | –
50 to 200 | 23.1 | C=CC(=O)N1CCN(c2c(C#N)c(Cl)nc3c(F)c(-c4ccc(F)c5sc(N)nc45)c(Cl)cc23)CC1 [Example 7] | –
50 to 200 | 362 | C=C(F)C(=O)N1CCN(c2c(C#N)cnc3c(F)c(-c4ccc(F)c5sc(N)nc45)c(Cl)cc23)CC1 [Example 9, 7-(2-Amino-7-Fluorobenzo [d] Thiazol-4-yl) -6-Chloro-8-Fluoro-4-(4-(2-Fluoroacryloyl) Piperazin-1-yl) Quinolin-3-Cyano] | –
50 to 200 | 19.3 | C=CC(=O)N1CCN(c2nc(OC[C@@H]3CCCN3C)nc3c(F)c(-c4ccc(F)c5sc(N)nc45)c(Cl)cc23)CC1CC#N (stereo partly drawn) [Example 12, 2-(1-acryloyl-4-(7-(2-Amino-7-Fluorobenzo [d] Thiazol-4-yl) -6-Chloro-8-Fluoro-2-(((S)-1-Methylpyrrolidin-2-yl) Methoxy) Quinazolin-4-yl) Piperazin-2-yl) Acetonitrile] | –
200 to 1000 | 390 | C=CC(=O)N1CCN(c2c(C#N)cnc3c(F)c(-c4ccc(F)c5sc(N)nc45)c(Cl)cc23)CC1CC#N (centres unmarked) [Example 15, 4-(4-Acryloyl-3-(Cyanomethyl) Piperazin-1-yl)-7-(2-Amino-7-Fluorobenzo [d] Thiazol-4-yl)-6-Chloro-8-Fluoroquinolin-3-Cyano] | –
50 to 200 | – | C=CC(=O)N1CCN(c2c(C#N)cnc3c(F)c(-c4ccc(F)c5sc(N)nc45)c(Cl)cc23)C[C@H]1C [Example 16, 4-((R)-4-Acryloyl-3-Methylpiperazin-1-yl)-7-(2-Amino-7-Fluorobenzo [d] Thiazol-4-yl)-6-Chloro-8-Fluoroquinolin-3 -Cyano] | IC50 [2]: < 100 nM; IC50 (MiaPaca-2 cells): < 200 nM; IC50 [3]: < 500 nM; IC50 (NCI-H358 cells): < 200 nM; IC50 [4]: < 500 nM
50 to 200 | 28 | C=CC(=O)N1CCN(c2nc(NCCC(=O)N(C)C)nc3c(F)c(-c4ccc(F)c5sc(N)nc45)c(Cl)cc23)CC1 [Example 19, 3-((4-(4-Acryloylpiperazin-1-yl)-7-(2-Amino-7-Fluorobenzo [d] Thiazol-4-yl)-6-Chloro-8-Fluoroquinazolin-2-yl) Amino)-N,N-Dimethylpropanamide] | –
50 to 200 | 0.93 | C=CC(=O)N1CCN(c2c(C#N)c(NCCC(=O)N(C)C)nc3c(F)c(-c4ccc(F)c5sc(N)nc45)c(Cl)cc23)CC1 [Example 22, 3-((4-(4-Acryloylpiperazin-1-yl)-7-(2-Amino-7-Fluorobenzo [d] Thiazol-4-yl)-6-Chloro-3-Cyano-8-Fluoroquinolin-2-yl) Amino)-N,N-Dimethylpropanamide] | –
< 50 | < 1 | C=CC(=O)N1CCN(c2nc(OC[C@@H]3C[C@@H](O)CN3C)nc3c(F)c(-c4ccc(F)c5sc(N)nc45)c(Cl)cc23)CC1 [Example 24, 1-(4-(7-(2-Amino-7-Fluorobenzo[d]Thiazol-4-yl)-6-Chloro-8-Fluoro-2-(((2S,4R)-4-Hydroxy-1-Methylpyrrolin-2-yl) Methoxy) Quinazolin-4-yl) Piperazin-1-yl) Prop-2-En-1-One] | –
< 50 | – | C=CC(=O)N1CCN(c2nc(OC[C@@H]3C[C@H](F)CN3C)nc3c(F)c(-c4ccc(F)c5sc(N)nc45)c(Cl)cc23)CC1 [Example 25] | IC50 [2]: < 100 nM; IC50 [3]: < 500 nM; IC50 [4]: < 500 nM
< 50 | – | C=CC(=O)N1CCN(c2nc(OC[C@@H]3C[C@@H](F)CN3C)nc3c(F)c(-c4ccc(F)c5sc(N)nc45)c(Cl)cc23)CC1 [Example 27] | IC50 ([1]; 2D): < 1 nM
50 to 200 | 63.2 | C=C(F)C(=O)N1C[C@@H]2C(=O)N(C)c3cnc4c(F)c(-c5ccc(F)c6sc(N)nc56)c(Cl)cc4c3N2C[C@H]1C [Example 28, (2R,4aR)-10-(2-Amino-7-Fluorobenzo[d]Thiazol-4-yl)-11-Chloro-9-Fluoro-3-(2-Fluoroacryloyl)-2,6-Dimethyl-2,3,4,4a-Tetrahydro-1H-Pyrazin [1′,2′:4,5] Pyrazin [2,3-c] Quinolin-5(6H)-one] | –
